# Counter-ions that a name gives are not always drawn.
# Test system: HMOX1
# Experiment: HMOX1 Protein Assay (immunostaining of HO-1 in NHLF cells, GE InCell 1000)
# Format: cell-based
# Settings: Homo sapiens, fold change above DMSO treated cells, 16 h; for fold induction at 5 µM: 5 μM compound
# In short: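 Fold induction of HO-1 over vehicle, normally at 5 μM compound (asterisk marks 3 μM), in 0.8% DMSO medium. Normal human lung fibroblasts were treated 16 h, then paraformaldehyde-fixed, anti-HO-1/Alexa 488 stained with Hoechst, and read by high-content imaging.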
compound,measurement,setting,value
"Cn1c(Nc2nc3ccc(Cl)cc3s2)nc2cc(C(=O)NCC(=O)NCCS(C)(=O)=O)ccc21 [Example 383, 2-(6-Chloro-benzothiazol-2-ylamino)-1-methyl-1H-benzoimidazole-5-carboxylic acid [(2-methanesulfonyl-ethylcarbamoyl)-methyl]-amide]",fold induction at 5 µM,,16.4
"COCCNC(=O)c1ccc2c(c1)nc(Nc1nc3ccc(C(F)(F)F)cc3s1)n2C [Example 25, 1-Methyl-2-(6-trifluoromethyl-benzothiazol-2-ylamino)-1H-benzoimidazole-5-carboxylic acid (2-methoxy-ethyl)-amide]",fold induction at 5 µM,,27.1
"CN(C)CCCC[C@H](NC(=O)c1ccc2c(c1)nc(Nc1nc3ccc(C(F)(F)F)cc3s1)n2C)C(=O)N(C)C [Example 370, 1-Methyl-2-(6-trifluoromethyl-benzothiazol-2-ylamino)-1H-benzoimidazole-5-carboxylic acid ((S)-5-dimethylamino-1-dimethylcarbamoyl-pentyl)-amide]",fold induction at 3 µM,3 μM compound (asterisk),19.3
"Cn1c(Nc2nc3ccc(OC(F)(F)F)cc3s2)nc2cc(C(=O)NCCN)ccc21 [Example 104, 1-Methyl-2-(6-trifluoromethoxy-benzothiazol-2-ylamino)-1H-benzoimidazole-5-carboxylic acid (2-amino-ethyl)-amide hydrochloride]",fold induction at 5 µM,,16.3
"CN(C)C(=O)[C@H]1CC[C@H](NC(=O)c2ccc3c(c2)nc(Nc2nc4ccc(Cl)cc4s2)n3C)CC1 [Example 379, 2-(6-Chloro-benzothiazol-2-ylamino)-1-methyl-1H-benzoimidazole-5-carboxylic acid (4-trans-dimethylcarbamoyl-cyclohexyl)-amide]",fold induction at 5 µM,,21.7
"Cn1c(Nc2nc3ccc(Cl)cc3s2)nc2cc(C(=O)N[C@H]3CCNC3)ccc21 [Example 291, 2-(6-Chloro-benzothiazol-2-ylamino)-1-methyl-1H-benzoimidazole-5-carboxylic acid (S)-pyrrolidin-3-ylamide hydrochloride]",fold induction at 5 µM,,17
"Cn1c(Nc2nc3ccc(OC(F)(F)F)cc3s2)nc2cc(C(=O)NN3CCOCC3)ccc21 [Example 15, 1-Methyl-2-(6-trifluoromethoxy-benzothiazol-2-ylamino)-1H-benzoimidazole-5-carboxylic acid morpholin-4-ylamide]",fold induction at 5 µM,,22.8
"CCn1c(Nc2nc3ccc(OC(F)(F)F)cc3s2)nc2cc(C(=O)OC)ccc21 [Example 153, 1-Ethyl-2-(6-trifluoromethoxy-benzothiazol-2-ylamino)-1H-benzoimidazole-5-carboxylic acid methyl ester]",fold induction at 5 µM,,4
"Cn1c(Nc2nc3ccc(OC(F)(F)F)cc3s2)nc2cc(C(=O)NCCCO)ccc21 [Example 13, 1-Methyl-2-(6-trifluoromethoxy-benzothiazol-2-ylamino)-1H-benzoimidazole-5-carboxylic acid (3-hydroxy-propyl)-amide]",fold induction at 5 µM,,20.1
"Cn1c(Nc2nc3ccc(Cl)cc3s2)nc2cc(C(=O)N3CCN(CCO)CC3)ccc21 [Example 306, [2-(6-Chloro-benzothiazol-2-ylamino)-1-methyl-1H-benzoimidazol-5-yl]-[4-(2-hydroxy-ethyl)-piperazin-1-yl]-methanone]",fold induction at 5 µM,,38.7
"C[C@H](O)C(=O)NCCNC(=O)c1ccc2c(c1)nc(Nc1nc3ccc(OC(F)(F)F)cc3s1)n2C [Example 326, 1-Methyl-2-(6-trifluoromethoxy-benzothiazol-2-ylamino)-1H-benzoimidazole-5-carboxylic acid [2-((S)-2-hydroxy-propionylamino)-ethyl]-amide]",fold induction at 5 µM,,34.3
"C[C@H](NC(=O)c1ccc2c(c1)nc(Nc1nc3ccc(OC(F)(F)F)cc3s1)n2C)C(=O)N(C)C [Example 149, 1-Methyl-2-(6-trifluoromethoxy-benzothiazol-2-ylamino)-1H-benzoimidazole-5-carboxylic acid ((S)-1-dimethylcarbamoyl-ethyl)-amide]",fold induction at 5 µM,,38.7
"CN(C)C(=O)[C@H](CO)NC(=O)c1ccc2c(c1)nc(Nc1nc3ccc(OC(F)(F)F)cc3s1)n2C [Example 368, 1-Methyl-2-(6-trifluoromethoxy-benzothiazol-2-ylamino)-1H-benzoimidazole-5-carboxylic acid ((S)-1-dimethylcarbamoyl-2-hydroxy-ethyl)-amide]",fold induction at 5 µM,,48
"CN(C)C1CCN(C(=O)CNC(=O)c2ccc3c(c2)nc(Nc2nc4ccc(Cl)cc4s2)n3C)CC1 [Example 456, 2-(6-Chloro-benzothiazol-2-ylamino)-1-methyl-1H-benzoimidazole-5-carboxylic acid [2-(4-dimethylamino-piperidin-1-yl)-2-oxo-ethyl]-amide]",fold induction at 5 µM,,67.3
"Cn1c(Nc2nc3ccc(OC(F)(F)F)cc3s2)nc2cc(C(=O)NCC3CNCCO3)ccc21 (stereo not shown) [Example 56, 1-Methyl-2-(6-trifluoromethoxy-benzothiazol-2-ylamino)-1H-benzoimidazole-5-carboxylic acid (morpholin-2-ylmethyl)-amide hydrochloride]",fold induction at 5 µM,,16.1
"COCCn1c(Nc2nc3ccc(Cl)cc3s2)nc2cc(C(=O)NCC3CCN(C(=O)CN(C)C)CC3)ccc21 [Example 315, 2-(6-Chloro-benzothiazol-2-ylamino)-1-(2-methoxy-ethyl)-1H-benzoimidazole-5-carboxylic acid [1-(2-dimethylamino-acetyl)-piperidin-4-ylmethyl]-amide]",fold induction at 5 µM,,75.7
"Cn1c(Nc2nc3ccc(OC(F)(F)F)cc3s2)nc2cc(C(=O)NCCOCCCF)ccc21 [Example 247, 1-Methyl-2-(6-trifluoromethoxy-benzothiazol-2-ylamino)-1H-benzoimidazole-5-carboxylic acid [2-(3-fluoro-propoxy)-ethyl]-amide]",fold induction at 5 µM,,28.3
"Cn1c(Nc2nc3ccc(OC(F)(F)F)cc3s2)nc2cc(C(=O)NCC(=O)N3CCC(Oc4ncccn4)CC3)ccc21 [Example 452, 1-Methyl-2-(6-trifluoromethoxy-benzothiazol-2-ylamino)-1H-benzoimidazole-5-carboxylic acid {2-oxo-2-[4-(pyrimidin-2-yloxy)-piperidin-1-yl]-ethyl}-amide]",fold induction at 5 µM,,71.7
"CNCCOCCNC(=O)c1ccc2c(c1)nc(Nc1nc3ccc(Cl)cc3s1)n2C [Example 272, 2-(6-Chloro-benzothiazol-2-ylamino)-1-methyl-1H-benzoimidazole-5-carboxylic acid [2-(2-methylamino-ethoxy)-ethyl]-amide hydrochloride]",fold induction at 5 µM,,86.5
"COC(=O)c1ccc2c(c1)nc(Nc1nc3cc(F)c(F)cc3s1)n2C [Example 33, 2-(5,6-Difluoro-benzothiazol-2-ylamino)-1-methyl-1H-benzoimidazole-5-carboxylic acid methyl ester]",fold induction at 5 µM,,11.7
"COC(C)(C)CNC(=O)c1ccc2c(c1)nc(Nc1nc3ccc(OC(F)(F)F)cc3s1)n2C [Example 22, 1-Methyl-2-(6-trifluoromethoxy-benzothiazol-2-ylamino)-1H-benzoimidazole-5-carboxylic acid (2-methoxy-2-methyl-propyl)-amide]",fold induction at 5 µM,,18.7
"Cn1c(Nc2nc3ccc(OC(F)(F)F)cc3s2)nc2cc(C(=O)NC3CCNCC3)ccc21 [Example 93, 1-Methyl-2-(6-trifluoromethoxy-benzothiazol-2-ylamino)-1H-benzoimidazole-5-carboxylic acid piperidin-4-ylamide hydrochloride]",fold induction at 5 µM,,11.3

# From patent US8759535B2, “Substituted fused imidazole derivatives, pharmaceutical compositions, and methods of use thereof” (High Point Pharmaceuticals, LLC, priority 2010, dated 2014)
